Literature values, collected in patent US8088918B2, “Noncardiotoxic pharmaceutical compounds” (Williamsburg Holdings LLC, priority 2004, dated 2012).

Conditions: parent drugs; cited from earlier work

First: Cc1cccc(CN2CCN(C(c3ccccc3)c3ccc(Cl)cc3)CC2)c1 (stereo not shown) [meclizine]
Second: CN1CCN(C(c2ccccc2)c2ccccc2)CC1 [cyclizine]
The pKa of the first is lower: 7.32 for the first, 8.35 for the second.

Going from `CN1CCC[C@@H]1CCO[C@](C)(c1ccccc1)c1ccc(Cl)cc1` [clemastine] to `CN(C)CCOC(C)(c1ccccc1)c1ccc(Cl)cc1` (stereo not shown) [chlorphenoxamine, Chlorphenoxamine], the pKa falls from 10.23 to 8.21.

First: CC(C)(C)c1ccc(C(O)CCCN2CCC(C(O)(c3ccccc3)c3ccccc3)CC2)cc1 (stereo not shown) [terfenadine, Terfenadine]
Second: COc1ccc(OCC2CN(C)CCC2c2ccccc2)cc1 (stereo not shown) [femoxetine, Femoxetine]
The pKa of the first is higher: 9.60 for the first, 9.00 for the second.

First: CN[C@@H]1CCc2[nH]c3ccc(C(N)=O)cc3c2C1 [frovatriptan, Frovatriptan]
Second: CN(C)CCc1c[nH]c2ccc(C[C@H]3COC(=O)N3)cc12 [Zolmitriptan]
The pKa of the first is higher: 10.63 for the first, 9.52 for the second.

Going from `CC(N)C12CC3CC(CC(C3)C1)C2` (stereo not shown) [rimantadine] to `COc1c(N2C[C@@H]3CCCN[C@@H]3C2)c(F)cc2c(=O)c(C(=O)O)cn(C3CC3)c12` [moxifloxacin], the pKa falls from 11.70 to 10.01.

Going from `CN(C)CCc1c[nH]c2ccc(Cn3cncn3)cc12` [rizatriptan] to `CN1CCC[C@@H]1Cc1c[nH]c2ccc(CCS(=O)(=O)c3ccccc3)cc12` [eletriptan, Eletriptan], the pKa rises from 9.49 to 10.13.

Going from `O=C1NC(=O)C(c2ccccc2)(c2ccccc2)N1` [phenytoin] to `CNCCC(Oc1ccccc1C)c1ccccc1` (stereo not shown) [atomoxetine, Atomoxetine], the pKa rises from 8.31 to 10.12.

`O=C1Cc2cc(CCN3CCN(c4nsc5ccccc45)CC3)c(Cl)cc2N1` [ziprasidone] and `CN1CCN(C2=Nc3cc(Cl)ccc3Nc3ccccc32)CC1` [clozapine, Clozapine] are within 0.2 log units of each other in pKa: 8.24 for the first, 8.20 for the second.

`CCc1nn(CCCN2CCN(c3cccc(Cl)c3)CC2)c(=O)n1CCOc1ccccc1` [nefazodone] and `CN1CCN(CCCN2c3ccccc3Sc3ccc(C(F)(F)F)cc32)CC1` [trifluoperazine] are within 0.2 log units of each other in pKa: 7.90 for the first, 7.98 for the second.

First: COc1cc(N)c(Cl)cc1C(=O)NC1CCN(CCCOc2ccc(F)cc2)CC1OC (stereo not shown) [cisapride, Cisapride]
Second: COc1cc(N)c(Cl)cc1C(=O)NC1CCNCC1OC (stereo not shown) [norcisapride]
The pKa of the first is lower: 7.04 for the first, 8.46 for the second.

Compared with `O=C1NCCN1CCN1CCC(c2cn(-c3ccc(F)cc3)c3ccc(Cl)cc23)CC1` [sertindole, Sertindole], `Fc1ccc(-n2cc(C3CCNCC3)c3cc(Cl)ccc32)cc1` [norsertindole] is higher in pKa: 9.06 for the first, 10.61 for the second.

First: CN(C)CCC=C1c2ccccc2C=Cc2ccccc21 [cyclobenzaprine, Cyclobenzaprine]
Second: CN(C)CCC=C1c2ccccc2COc2ccccc21 (mixture of isomers) [doxepin, Doxepin]
The pKa of the first is higher: 9.21 for the first, 8.00 for the second.

Going from `CC1COc2c(N3CCN(C)CC3)c(F)cc3c(=O)c(C(=O)O)cn1c23` (stereo not shown) [ofloxacin] to `CN(C)CCC[C@@]1(c2ccc(F)cc2)OCc2cc(C#N)ccc21` [escitalopram, Escitalopram], the pKa rises from 7.09 to 9.60.

Going from `CN(C)CCCN1c2ccccc2CCc2ccc(Cl)cc21` [clomipramine] to `CNCCCC12CCC(c3ccccc31)c1ccccc12` [maprotiline], the pKa rises from 9.50 to 10.20.
